In ChEMBL document CHEMBL1201862, “PubChem BioAssay data set” (2004):
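Five compound concentrations were applied to cells in 96-well plates for 48 hours; endpoints were derived by simple linear interpolation of the resulting dose-response curve. GI50 is the concentration that inhibits growth by half.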 The source made the active and inactive calls. Cut-off read from the data, not from the text of the source: active = GI50 up to about 1.1 µM and inactive = higher.

Tests used:
Assay in all cases: growth of human tumour cells (NCI), 48 h
UO-31 = test system: UO-31
UACC-257 = test system: UACC-257
TK-10 = test system: TK-10
NCI-H522 = test system: NCI-H522
COLO 205 = test system: COLO 205
SK-MEL-28 = test system: SK-MEL-28
NCI/ADR-RES = test system: NCI/ADR-RES
SNB-19 = test system: SNB-19
LOX IMVI = test system: LOX IMVI
SW-620 = test system: SW-620
OVCAR-8 = test system: OVCAR-8
HOP-92 = test system: HOP-92
HL-60 = test system: HL-60
BT-549 = test system: BT-549
MDA-MB-231 = test system: MDA-MB-231
NCI-H23 = test system: NCI-H23
NCI-H226 = test system: NCI-H226
CAKI-1 = test system: CAKI-1
HT-29 = test system: HT-29
IGROV-1 = test system: IGROV-1

Structure (SMILES) | GI50 (UO-31) | GI50 (UACC-257) | GI50 (TK-10) | GI50 (NCI-H522) | GI50 (COLO 205) | GI50 (SK-MEL-28) | GI50 (NCI/ADR-RES) | GI50 (SNB-19) | GI50 (LOX IMVI) | GI50 (SW-620) | GI50 (OVCAR-8) | GI50 (HOP-92) | GI50 (HL-60) | GI50 (BT-549) | GI50 (MDA-MB-231) | GI50 (NCI-H23) | GI50 (NCI-H226) | GI50 (CAKI-1) | GI50 (HT-29) | GI50 (IGROV-1)
N#Cc1c(C#N)c(SSc2c(C#N)c(C#N)c(N)n2-c2cccc3ccccc23)n(-c2cccc3ccccc23)c1N | 2.34 µM (inactive) | 5.62 µM (inactive) | 5.77 µM (inactive) | 1.5 µM (inactive) | 3.67 µM (inactive) | 6.03 µM (inactive) | 25.1 µM (inactive) | 20.9 µM (inactive) | 7.94 µM (inactive) | 2.56 µM (inactive) | 4.36 µM (inactive) | 4.71 µM (inactive) | 2.33 µM (inactive) | 5.83 µM (inactive) | 18.4 µM (inactive) | 11.2 µM (inactive) | 30.2 µM (inactive) | 8.05 µM (inactive) | 19.7 µM (inactive) | 7.45 µM (inactive)
CSC1NNC2(C(=O)N1)c1ccccc1-c1ccccc12 (stereo not given) | > 10 µM (inactive) | > 10 µM (inactive) | > 10 µM (inactive) | > 10 µM (inactive) | > 10 µM (inactive) | > 10 µM (inactive) | > 10 µM (inactive) | > 10 µM (inactive) | > 10 µM (inactive) | > 10 µM (inactive) | > 10 µM (inactive) | > 10 µM (inactive) | > 10 µM (inactive) | > 10 µM (inactive) | > 10 µM (inactive) | > 10 µM (inactive) | > 10 µM (inactive) | > 10 µM (inactive) | > 10 µM (inactive) | > 10 µM (inactive)
COC(=O)c1ccc(NC(=O)c2cc3c(cc2Br)OCO3)o1 | > 100 µM (inactive) | > 100 µM (inactive) | > 100 µM (inactive) | 15.7 µM (inactive) | > 100 µM (inactive) | > 100 µM (inactive) | 59 µM (inactive) | > 100 µM (inactive) | > 100 µM (inactive) | > 100 µM (inactive) | > 100 µM (inactive) | 26.5 µM (inactive) | > 100 µM (inactive) | 39.5 µM (inactive) | > 100 µM (inactive) | > 100 µM (inactive) | > 100 µM (inactive) | > 100 µM (inactive) | > 100 µM (inactive) | > 100 µM (inactive)
O=C1/C(=C\c2cccc(Oc3ccccc3)c2)S(=O)(=O)C(c2ccccc2)N1c1ccccc1Cl (stereo not given) | 19.7 µM (inactive) | 28.6 µM (inactive) | 77.1 µM (inactive) | 18.4 µM (inactive) | 17.6 µM (inactive) | 38.9 µM (inactive) | 29.4 µM (inactive) | 16.1 µM (inactive) | 29.2 µM (inactive) | 30.2 µM (inactive) | 23.4 µM (inactive) | 17.9 µM (inactive) | 13.9 µM (inactive) | 43.1 µM (inactive) | 28.2 µM (inactive) | 24.4 µM (inactive) | 29.6 µM (inactive) | 32.6 µM (inactive) | 22.6 µM (inactive) | 17.1 µM (inactive)
CCCCCCCCCCCCCCCCNC(=O)/C(=C\c1ccc(Cl)c(Cl)c1)NC(=O)c1ccccc1 | 42 µM (inactive) | > 100 µM (inactive) | 20 µM (inactive) | 37.2 µM (inactive) | 35.1 µM (inactive) | 70.1 µM (inactive) | 48.3 µM (inactive) | 46.3 µM (inactive) | 21.9 µM (inactive) | 31.7 µM (inactive) | 59.6 µM (inactive) | 14.2 µM (inactive) | 0.431 µM (active) | > 100 µM (inactive) | 18 µM (inactive) | 22.8 µM (inactive) | 23.6 µM (inactive) | 66.7 µM (inactive) | 35.5 µM (inactive) | 16.8 µM (inactive)
O=c1oc2ccc3ccccc3c2cc1-c1cn2c(n1)sc1ccccc12 | > 100 µM (inactive) | > 100 µM (inactive) | > 100 µM (inactive) | > 100 µM (inactive) | > 100 µM (inactive) | > 100 µM (inactive) | > 100 µM (inactive) | > 100 µM (inactive) | > 100 µM (inactive) | > 100 µM (inactive) | > 100 µM (inactive) | 55.2 µM (inactive) | > 100 µM (inactive) | > 100 µM (inactive) | > 100 µM (inactive) | > 100 µM (inactive) | > 100 µM (inactive) | > 100 µM (inactive) | > 100 µM (inactive) | > 100 µM (inactive)
